According to patent US11008346B2, “Beta-lactamase inhibitors” (priority 2014, dated 2021):
Read-outs that look alike come from different tables or passages of the source.

Key:
[1] = target: T1, VIM-2 metallo β-lactamase (Pseudomonas aeruginosa, UniProt Q9K2N0); assay: β-lactamase enzyme inhibition, VIM-2; assay type: biochemical; conditions: Nitrocefin 100 μM, 486 nm; 15 min at 37° C. preincubation; read-out: IC50 VIM-2 (Class B)
T1 construct: made in house; host or cells: E. coli BL21(DE3)
Summary of the method: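 Inhibitor and enzyme sat together 15 min at 37° C before 100 μM nitrocefin (final) was added and 486 nm absorbance read for 10 min. IC50 is the concentration halving initial hydrolysis rate relative to uninhibited wells. Protein came from Q sepharose anion exchange at pH 7.5, repeated to >90% purity.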

[2] = tested on: E. coli ESBL4 expressing CTX-M-15; assay: broth microdilution MIC, E. coli CTX-M-15; assay type: cell-based; conditions: Fixed CAZ (ceftazidime) 4 μg/mL
Summary of the method: (§1)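 Potentiation MICs were run by CLSI broth microdilution in cation-adjusted Mueller Hinton broth, with test compound serially diluted 2-fold from 32 to 0.25 μg/mL against a fixed 4 μg/mL beta-lactam overlay. Plates were incubated 16-20 hours at 37° C and the MIC was read visually.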

[3] = tested on: P. aeruginosa Ps296 expressing VIM-2; assay: broth microdilution MIC, P. aeruginosa VIM-2; assay type: cell-based; conditions: Fixed Mero (meropenem) 4 μg/mL
Summary of the method: as §1

[4] = tested on: E. cloacae 144200 expressing Class C P99 AmpC; assay: broth microdilution MIC, E. cloacae P99; assay type: cell-based; conditions: Fixed CAZ (ceftazidime) 4 μg/mL
Summary of the method: as §1

[5] = tested on: S. aureus MSSA-7 producing penicillinase PC-1; assay: broth microdilution MIC, S. aureus PC-1; assay type: cell-based; conditions: Fixed Pip (piperacillin) 4 μg/mL
Summary of the method: as §1

[6] = tested on: K. pneumoniae 156319 expressing KPC-3; assay: broth microdilution MIC, K. pneumoniae KPC-3; assay type: cell-based; conditions: Fixed Mero (meropenem) 4 μg/mL
Summary of the method: as §1

[7] = target: T2, SHV-5 β-lactamase (Klebsiella pneumoniae, UniProt P0A3M1); assay: β-lactamase enzyme inhibition, SHV-5; assay type: biochemical
T2 construct: made in house; host or cells: E. coli BL21(DE3)
T2 sequence (P0A3M1 22-286): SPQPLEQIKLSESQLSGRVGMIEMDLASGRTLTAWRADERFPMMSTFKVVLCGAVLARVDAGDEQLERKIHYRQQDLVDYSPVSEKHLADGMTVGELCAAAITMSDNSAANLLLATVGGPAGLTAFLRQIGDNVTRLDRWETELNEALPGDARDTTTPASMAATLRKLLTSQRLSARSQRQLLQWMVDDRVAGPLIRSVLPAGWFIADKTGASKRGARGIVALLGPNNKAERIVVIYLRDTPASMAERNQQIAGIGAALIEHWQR
Summary of the method: (§2)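 Absorbance-based kinetic read over 10 min after a 15 min, 37° C enzyme–inhibitor preincubation. Substrates differed by target: nitrocefin at 100 μM final (OXA-1, p99 AmpC; 486 nm), imipenem (KPC-2; 300 nm), cefotaxime (SHV-5; 260 nm). Percent inhibition per concentration gave the IC50.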

[8] = target: T3, KPC-2 β-lactamase (Klebsiella pneumoniae, UniProt Q9F663); assay: β-lactamase enzyme inhibition, KPC-2; assay type: biochemical
T3 construct: made in house; host or cells: E. coli BL21(DE3)
T3 sequence (Q9F663 25-293, looked up): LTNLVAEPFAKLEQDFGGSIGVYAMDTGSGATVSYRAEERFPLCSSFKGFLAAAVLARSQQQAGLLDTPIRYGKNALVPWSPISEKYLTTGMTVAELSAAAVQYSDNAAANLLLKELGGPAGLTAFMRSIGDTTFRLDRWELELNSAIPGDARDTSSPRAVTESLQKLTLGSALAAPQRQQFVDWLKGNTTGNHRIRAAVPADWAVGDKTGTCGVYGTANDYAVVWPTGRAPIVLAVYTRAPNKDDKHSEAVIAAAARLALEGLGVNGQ
Summary of the method: as §2

[9] = tested on: K. pneumoniae A-1797 expressing KPC-2 and VIM-4; assay: broth microdilution MIC, K. pneumoniae KPC-2 and VIM-4; assay type: cell-based; conditions: Fixed Mero (meropenem) 4 μg/mL
Summary of the method: as §1

[10] = target: T4, p99 AmpC β-lactamase (Enterobacter cloacae, UniProt P05364); assay: β-lactamase enzyme inhibition, p99 AmpC; assay type: biochemical
T4 construct: made in house; host or cells: E. coli BL21(DE3)
T4 sequence (P05364 21-381): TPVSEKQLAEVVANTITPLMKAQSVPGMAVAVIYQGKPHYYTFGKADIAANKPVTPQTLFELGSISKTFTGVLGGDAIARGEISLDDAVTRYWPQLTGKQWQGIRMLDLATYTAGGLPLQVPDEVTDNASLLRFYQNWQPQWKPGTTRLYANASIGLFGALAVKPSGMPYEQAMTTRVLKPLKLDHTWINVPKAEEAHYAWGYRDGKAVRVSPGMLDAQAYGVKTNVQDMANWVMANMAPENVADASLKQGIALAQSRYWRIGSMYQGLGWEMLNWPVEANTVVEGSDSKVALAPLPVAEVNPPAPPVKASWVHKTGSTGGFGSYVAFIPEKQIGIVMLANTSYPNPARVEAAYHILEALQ
Summary of the method: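 Inhibitor and enzyme were incubated 15 min at 37°C first. The enzyme was recombinant p99 AmpC, untagged, from E. coli BL21(DE3), purified by ion-exchange and size-exclusion chromatography.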

[11] = target: T5, OXA-1 β-lactamase (Escherichia coli, UniProt P13661); assay: β-lactamase enzyme inhibition, OXA-1; assay type: biochemical; conditions: Nitrocefin 100 μM, 486 nm; 15 min at 37° C. preincubation; read-out: IC50 OXA-1 (Class D)
T5 construct: made in house; host or cells: E. coli BL21(DE3)
T5 sequence (P13661 26-276): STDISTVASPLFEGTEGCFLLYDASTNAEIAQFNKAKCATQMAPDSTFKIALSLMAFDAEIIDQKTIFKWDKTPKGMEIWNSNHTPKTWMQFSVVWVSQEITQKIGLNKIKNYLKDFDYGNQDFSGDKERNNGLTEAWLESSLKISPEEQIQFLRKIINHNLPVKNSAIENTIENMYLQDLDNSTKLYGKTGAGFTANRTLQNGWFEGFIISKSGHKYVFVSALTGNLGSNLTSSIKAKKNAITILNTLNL
Summary of the method: as §2

[12] = imipenem substrate, 300 nm, 15 min at 37° C. preincubation, read-out: IC50 KPC-2 (Class A)

| SMILES | IC50 [1] [nM] | MIC of exemplary compounds in presence of fixed β-lactams, E. coli ESBL4 CTX-M-15 [2] | MIC of exemplary compounds in presence of fixed β-lactams, P. aerug. Ps296 VIM-2 [3] | MIC of exemplary compounds in presence of fixed β-lactams, E. cl. 144200 p99 AmpC [4] | MIC of exemplary compounds in presence of fixed β-lactams, S. aureus MSSA-7 PC-1 [5] | MIC of exemplary compounds in presence of fixed β-lactams, K.P. 156319 KPC-3 [6] | IC50 [7] [nM] | IC50 [8, 12] [nM] | MIC of exemplary compounds in presence of fixed β-lactams, K.P. A-1797 KPC-2 VIM-4 [9] | IC50 [10] [nM] | IC50 [11] [nM] | IC50 [8] [nM] |
| --- | --- | --- | --- | --- | --- | --- | --- | --- | --- | --- | --- | --- |
| O=C(/C=C/Cl)N[C@H]1Cc2cccc(C(=O)O)c2OB1O [Example 12, (R)-3-(3-Chloro-acryloylamino)-2-hydroxy-3,4-dihydro-2H-benzo[e][1,2]oxaborinine-8-carboxylic acid] | 100 to 1000 | C (C represents the MIC in the presence of ≤4 g/mL of a β-lactamase inhibitor) | B (B represents the MIC in the presence of between 8 and 32 g/mL of a β-lactamase inhibitor) | C (C represents the MIC in the presence of ≤4 g/mL of a β-lactamase inhibitor) | C (C represents the MIC in the presence of ≤4 g/mL of a β-lactamase inhibitor) | B (B represents the MIC in the presence of between 8 and 32 g/mL of a β-lactamase inhibitor) | < 100 | < 100 | A (A represents an MIC of the fixed β-lactam antibiotic in the presence of >32 g/mL of a β-lactamase inhibitor) | < 100 | < 100 | – |
| COCCOCC(=O)N[C@H]1Cc2cccc(C(=O)O)c2OB1O [Example 27, (R)-2-Hydroxy-3-[2-(2-methoxy-ethoxy)-acetylamino]-3,4-dihydro-2H-benzo[e][1,2]oxaborinine-8-carboxylic acid] | 100 to 1000 | C (C represents the MIC in the presence of ≤4 g/mL of a β-lactamase inhibitor) | A (A represents an MIC of the fixed β-lactam antibiotic in the presence of >32 g/mL of a β-lactamase inhibitor) | C (C represents the MIC in the presence of ≤4 g/mL of a β-lactamase inhibitor) | C (C represents the MIC in the presence of ≤4 g/mL of a β-lactamase inhibitor) | C (C represents the MIC in the presence of ≤4 g/mL of a β-lactamase inhibitor) | < 100 | < 100 | B (B represents the MIC in the presence of between 8 and 32 g/mL of a β-lactamase inhibitor) | < 100 | < 100 | – |
| NC(=O)NCCC(=O)N[C@H]1Cc2cccc(C(=O)O)c2OB1O [Example 23, (R)-2-Hydroxy-3-(3-ureido-propionylamino)-3,4-dihydro-2H-benzo[e][1,2]oxaborinine-8-carboxylic acid] | 1000 to 10000 | C (C represents the MIC in the presence of ≤4 g/mL of a β-lactamase inhibitor) | C (C represents the MIC in the presence of ≤4 g/mL of a β-lactamase inhibitor) | C (C represents the MIC in the presence of ≤4 g/mL of a β-lactamase inhibitor) | C (C represents the MIC in the presence of ≤4 g/mL of a β-lactamase inhibitor) | C (C represents the MIC in the presence of ≤4 g/mL of a β-lactamase inhibitor) | 100 to 1000 | < 100 | B (B represents the MIC in the presence of between 8 and 32 g/mL of a β-lactamase inhibitor) | < 100 | < 100 | – |
| CCCC(=O)N[C@H]1Cc2cccc(C(=O)O)c2OB1O [Example 1, (R)-3-Butyrylamino-2-hydroxy-3,4-dihydro-2H-benzo[e][1,2]oxaborinine-8-carboxylic acid] | 1000 to 10000 | C (C represents the MIC in the presence of ≤4 g/mL of a β-lactamase inhibitor) | A (A represents an MIC of the fixed β-lactam antibiotic in the presence of >32 g/mL of a β-lactamase inhibitor) | C (C represents the MIC in the presence of ≤4 g/mL of a β-lactamase inhibitor) | C (C represents the MIC in the presence of ≤4 g/mL of a β-lactamase inhibitor) | C (C represents the MIC in the presence of ≤4 g/mL of a β-lactamase inhibitor) | < 100 | – | A (A represents an MIC of the fixed β-lactam antibiotic in the presence of >32 g/mL of a β-lactamase inhibitor) | < 100 | < 100 | < 100 |
| NC(=O)CCC(=O)N[C@H]1Cc2cccc(C(=O)O)c2OB1O [Example 16, (R)-3-(3-Carbamoyl-propionylamino)-2-hydroxy-3,4-dihydro-2H-benzo[e][1,2]oxaborinine-8-carboxylic acid] | 100 to 1000 | C (C represents the MIC in the presence of ≤4 g/mL of a β-lactamase inhibitor) | C (C represents the MIC in the presence of ≤4 g/mL of a β-lactamase inhibitor) | C (C represents the MIC in the presence of ≤4 g/mL of a β-lactamase inhibitor) | C (C represents the MIC in the presence of ≤4 g/mL of a β-lactamase inhibitor) | C (C represents the MIC in the presence of ≤4 g/mL of a β-lactamase inhibitor) | 100 to 1000 | – | B (B represents the MIC in the presence of between 8 and 32 g/mL of a β-lactamase inhibitor) | < 100 | < 100 | < 100 |
| N#CCC(=O)N[C@H]1Cc2cccc(C(=O)O)c2OB1O [Example 2, (R)-3-(2-Cyano-acetylamino)-2-hydroxy-3,4-dihydro-2H-benzo[e] [1,2]oxaborinine-8-carboxylic acid] | 1000 to 10000 | C (C represents the MIC in the presence of ≤4 g/mL of a β-lactamase inhibitor) | B (B represents the MIC in the presence of between 8 and 32 g/mL of a β-lactamase inhibitor) | C (C represents the MIC in the presence of ≤4 g/mL of a β-lactamase inhibitor) | C (C represents the MIC in the presence of ≤4 g/mL of a β-lactamase inhibitor) | C (C represents the MIC in the presence of ≤4 g/mL of a β-lactamase inhibitor) | < 100 | 100 to 1000 | C (C represents the MIC in the presence of ≤4 g/mL of a β-lactamase inhibitor) | < 100 | < 100 | – |
